From publication PMC6691788, “Design and synthesis of phthalazine-based compounds as potent anticancer agents with potential antiangiogenic activity via VEGFR-2 inhibition” (Journal of Enzyme Inhibition and Medicinal Chemistry, 2019)

What was measured:
Experiment in all cases: NCI 60 cell panel SRB screen
SNB-75 = type: cell-based; settings: Homo sapiens
KM12 = type: cell-based; settings: Homo sapiens
HCT-116 = type: cell-based; settings: Homo sapiens
SK-MEL-5 = type: cell-based; settings: Homo sapiens
OVCAR-4 = type: cell-based; settings: Homo sapiens
CCRF-CEM = type: cell-based, human
HT29 = type: cell-based; settings: Homo sapiens, HT-29
OVCAR-5 = type: cell-based; settings: Homo sapiens
MDA-MB-468 = type: cell-based; settings: Homo sapiens
Method: The human tumor cell lines of the cancer-screening panel were grown in RPMI 1640 medium containing 5% fetal bovine serum and […] L-glutamine. For a typical screening experiment, cells are inoculated into 96 well microtiter plates in 100 ml at plating densities ranging from 5000 to 40,000 cells/well depending on the doubling time of individual cell lines. After cell inoculation, the microtiter plates are incubated at 37 °C, 5% CO2, 95% air and 100%
relative humidity for 24 h prior to addition of experimental drugs. After 24 h, two plates of each cell line are fixed in situ with TCA, to represent a measurement of the cell population for each cell line at the time of drug addition (Tz). Experimental drugs are dissolved in dimethyl sulfoxide at 400-fold the desired final maximum test concentration and stored frozen prior to use. At the time of drug addition, an aliquot of frozen concentrate is thawed and diluted to twice the desired final maximum test concentration with complete medium containing […] Gentamicin. Additional four, 10-fold or ½log serial dilutions are made to provide a total of five drug concentrations plus control. Aliquots of […] of these different drug dilutions are added to the appropriate microtiter wells already containing 100 ml of medium, resulting in the required final drug concentrations. Following drug addition, the plates are incubated for an additional 48 h at 37 °C, 5% CO2, 95% air, and 100% relative humidity. For adherent cells, the assay is terminated by the addition of cold TCA. Cells are fixed in situ by the gentle addition of […] of cold 50% (w/v) TCA (final concentration,10% TCA) and incubated for 60 min at 4 °C. The supernatant is discarded, and the plates are washed five times with tap water and air dried. Sulforhodamine B (SRB) solution (100 ml) at 0.4% (w/v) in 1% acetic acid is added to each well, and plates are incubated for 10 min at room temperature. After staining, unbound dye is removed by washing five times with 1% acetic acid and the plates are air dried. Bound stain is subsequently dissolved with 10 μM trizma base, and the absorbance is read on an automated plate reader at a wavelength of 515 nm. For suspension cells, the methodology is the same except that the assay is terminated by fixing settled cells at the bottom of the wells by gently adding […] of 80% TCA (final concentration, 16% TCA).
Using the seven absorbance measurements [time zero, (Tz), control growth, (C), and test growth in the presence of drug at the five concentration levels (Ti)], the percentage growth is calculated at each of the drug concentrations levels. Percentage growth inhibition is calculated as: [(Ti -Tz)/(C - Tz)] x 100 for concentrations for which Ti>/ ¼ Tz and [(Ti -Tz) / Tz] x100 for concentrations for which Ti <Tz.
Three dose response parameters are calculated for each experimental agent. Growth inhibition of 50% (GI50) is calculated from [(Ti -Tz)/(C - Tz)] x 100 =50, which is the drug concentration resulting in a 50% reduction in the net protein increase (as measured by SRB staining) in control cells during the drug incubation. The drug concentration resulting in total growth inhibition (TGI) is calculated from Ti ¼ Tz. The LC50 (concentration of drug resulting in a 50% reduction in the measured protein at the end of the drug treatment as compared to that at the beginning) indicating a net loss of cells following treatment is calculated from [(Ti - Tz) / Tz] x100 = -50. Values are calculated for each of these three parameters if the level of activity is reached; however, if the effect is not reached or is exceeded, the value for that parameter is expressed as greater or less than the maximum or minimum concentration tested.

HS 578T = type: cell-based; settings: Homo sapiens
NCI-H460 = type: cell-based; settings: Homo sapiens
T-47D = type: cell-based; settings: Homo sapiens, T47D
UACC-62 = type: cell-based
IGROV1 = type: cell-based; settings: Homo sapiens, IGROV-1
TK-10 = type: cell-based, human
OVCAR-3 = type: cell-based; settings: Homo sapiens
LOX IMVI = type: cell-based; settings: Homo sapiens
MDA-MB 231/ATCC = type: cell-based; settings: Homo sapiens
[1] = read-out: percent cell growth promotion

With `O=C(Nc1ccc(Cl)cc1)Nc1ccc(Nc2nncc3ccccc23)cc1` [Compound 6b, 1–(4-Chlorophenyl)-3–(4-(phthalazin-1-ylamino)phenyl)urea] the GI50 (SNB-75; SNB-75, 5 log dose) was 1.88 µM, the IC (TGI) (SNB-75; SNB-75, 5 log dose) was 8.67 µM and the LC50 (concentration killing 50% of cells) (SNB-75; SNB-75, 5 log dose, 48 h) was 31.8 µM. It also gave an activity at 10 µM (SNB-75; SNB-75, single dose 10 μM, read-out: percent cell growth promotion) of 46.2%, a GI50 (KM12; KM12, 5 log dose) of 1.47 µM and an IC (TGI) (KM12; KM12, 5 log dose) of 11.4 µM. The CC50 (KM12; KM12, 5 log dose, 48 h, read-out: LC50 (the source's name)) was 45 µM, the activity at 10 µM (KM12; KM12, single dose 10 μM, read-out: percent cell growth promotion) was 18.9% and the GI50 (HCT-116; HCT-116, 5 log dose) was 2.46 µM. For the same compound, the IC (TGI) (HCT-116; HCT-116, 5 log dose) was 12 µM, the LC50 (lethal concentration 50%) (HCT-116; HCT-116, 5 log dose, 48 h) was 37.4 µM and the activity at 10 µM (HCT-116; HCT-116, single dose 10 μM, read-out: percent cell growth promotion) was 15.2%. For the same compound, the GI50 (SK-MEL-5; SK-MEL-5) was 2.31 µM, the IC (TGI) (SK-MEL-5; SK-MEL-5, read-out: TGI) was 6.82 µM and the activity at 10 µM (SK-MEL-5; SK-MEL-5, read-out: percent cell growth promotion) was 7.12%. It also gave a CC50 (SK-MEL-5; SK-MEL-5, 5 log dose, 48 h, read-out: LC50 (the source's name)) of 24.7 µM, a GI50 (OVCAR-4; OVCAR-4, 5 log dose) of 1.97 µM and an IC (TGI) (OVCAR-4; OVCAR-4, 5 log dose) of 8.17 µM. The CC50 (OVCAR-4; OVCAR-4, 5 log dose, 48 h, read-out: LC50 (the source's name)) was greater than 100 µM, the activity at 10 µM (OVCAR-4; OVCAR-4, single dose 10 μM, read-out: percent cell growth promotion) was 11.1% and the TGI (CCRF-CEM; 5 log dose) was 17.0 µM. It also gave a GI50 (CCRF-CEM; Homo sapiens, 5 log dose) of 2.57 µM, a CC50 (CCRF-CEM; Homo sapiens, 5 log dose, 48 h, read-out: LC50 (the source's name)) greater than 100 µM and an activity at 10 µM (CCRF-CEM; Homo sapiens, single dose 10 μM, read-out: percent cell growth promotion) of 13.1%. The GI50 (HT29; HT29, 5 log dose) was 2.65 µM, the IC (TGI) (HT29; HT29, 5 log dose) was 14.1 µM and the CC50 (HT29; HT29, 5 log dose, 48 h, read-out: LC50 (the source's name)) was 60 µM. It also gave an activity at 10 µM (HT29; HT29, single dose 10 μM, read-out: percent cell growth promotion) of 32.4%, a GI50 (OVCAR-5; OVCAR-5, 5 log dose) of 4.15 µM and an IC (TGI) (OVCAR-5; OVCAR-5, 5 log dose) of 34.3 µM. The CC50 (OVCAR-5; OVCAR-5, 5 log dose, 48 h, read-out: LC50 (the source's name)) was greater than 100 µM, the activity at 10 µM (OVCAR-5; OVCAR-5, single dose 10 μM, read-out: percent cell growth promotion) was 85.6% and the activity at 10 µM (MDA-MB-468; MDA-MB-468, MDA-MBA-468, single dose 10 μM, read-out: percent cell growth promotion) was 0.17%. It also gave a GI50 (MDA-MB-468; MDA-MB-468, 5 log dose) of 2.57 µM, an IC (TGI) (MDA-MB-468; MDA-MB-468, 5 log dose) of 9.47 µM and a CC50 (MDA-MB-468; MDA-MB-468, 5 log dose, 48 h, read-out: LC50 (the source's name)) greater than 100 µM. The GI50 (HS 578T; Hs-578T) was 3.83 µM, the IC (TGI) (HS 578T; Hs-578T, read-out: TGI) was 27.7 µM and the activity at 10 µM (HS 578T; Hs-578T, read-out: percent cell growth promotion) was 58.3%. It also gave a CC50 (HS 578T; HS 578T, 5 log dose, 48 h, read-out: LC50 (the source's name)) greater than 100 µM, a GI50 (NCI-H460; NCI-H460, 5 log dose) of 2.91 µM and an IC (TGI) (NCI-H460; NCI-H460, 5 log dose) of 11.9 µM. For the same compound, the LC50 (concentration causing 50% cell kill) (NCI-H460; NCI-H460, 5 log dose, 48 h) was 56.8 µM, the activity at 10 µM (NCI-H460; NCI-H460, single dose 10 μM, read-out: percent cell growth promotion) was 9.89% and the GI50 (T-47D) was 1.03 µM. It also gave an IC (TGI) (T-47D; read-out: TGI) of 5.35 µM, an activity at 10 µM (T-47D; [1]) of -6.32% and a CC50 (T-47D; T-47D, 5 log dose, 48 h, read-out: LC50 (the source's name)) of 79.3 µM. It also gave a GI50 (UACC-62; Homo sapiens, UACC-62) of 0.95 µM, an activity at 10 µM (UACC-62; Homo sapiens, UACC-62, read-out: percent cell growth promotion) of 13.4% and a CC50 (UACC-62; Homo sapiens, UACC-62, 5 log dose, 48 h, read-out: LC50 (the source's name)) of 38.1 µM. It also gave a TGI (UACC-62; UACC-62, 5 log dose) of 7.97 µM, a GI50 (IGROV1; IGROV1, 5 log dose) of 2.52 µM and an IC (TGI) (IGROV1; IGROV1, 5 log dose) of 30.7 µM. The CC50 (IGROV1; IGROV1, 5 log dose, 48 h, read-out: LC50 (the source's name)) was greater than 100 µM, the activity at 10 µM (IGROV1; IGROV1, single dose 10 μM, read-out: percent cell growth promotion) was 39.7% and the GI50 (TK-10; Homo sapiens, TK-10, 5 log dose) was 5.03 µM. The CC50 (TK-10; Homo sapiens, TK-10, 5 log dose, 48 h, read-out: LC50 (the source's name)) was greater than 100 µM, the activity at 10 µM (TK-10; Homo sapiens, TK-10, single dose 10 μM, read-out: percent cell growth promotion) was 32% and the TGI (TK-10; TK-10, 5 log dose) was 24.4 µM. It also gave a GI50 (OVCAR-3; OVCAR-3, 5 log dose) of 2.57 µM, an IC (TGI) (OVCAR-3; OVCAR-3, 5 log dose) of 10.3 µM and a CC50 (OVCAR-3; OVCAR-3, 5 log dose, 48 h, read-out: LC50 (the source's name)) of 70 µM. The activity at 10 µM (OVCAR-3; OVCAR-3, single dose 10 μM, read-out: percent cell growth promotion) was 17.6%, the GI50 (LOX IMVI) was 0.82 µM and the CC50 (LOX IMVI; 5 log dose, 48 h, read-out: LC50 (the source's name)) was 53.2 µM. It also gave an IC (TGI) (LOX IMVI; read-out: TGI) of 14.6 µM, an activity at 10 µM (LOX IMVI; [1]) of 33.6% and a GI50 (MDA-MB 231/ATCC; MDA-MB-231) of 3.4 µM. The IC (TGI) (MDA-MB 231/ATCC; MDA-MB-231, read-out: TGI) was 15.9 µM, the activity at 10 µM (MDA-MB 231/ATCC; MDA-MB-231, read-out: percent cell growth promotion) was 36.6% and the CC50 (MDA-MB 231/ATCC; MDA-MB-231, MDA-MDA 231/ATCC, 5 log dose, 48 h, read-out: LC50 (the source's name)) was 64.9 µM.
